Laboratory results as given in publication PMC7381729, “A new class of PentixaFor- and PentixaTher-based theranostic agents with enhanced CXCR4-targeting efficiency” (Theranostics, 2020).
Like-named read-outs stand apart in the source and are kept apart here. Where a SMILES comes first, the peptide text is derived from it. Side-chain parts run from the residue outwards. [ ]: non-standard residue; d: D form. The star is where a group is joined. DOTA = O=C(O)CN1CCN(CC(=O)O)CCN(CC(=O)*)CCN(CC(=O)O)CC1; 2Nal = N[C@@H](Cc1ccc2ccccc2c1)C(=O)O; dNMeOrn = CN[C@H](CCCN)C(=O)O; 4Abz = Nc1ccc(C(=O)O)cc1

Test: Biodistribution in Daudi xenograft bearing mice
Type: in vivo, mouse
Conditions: female, CB-17 SCID, mouse, iv, total radioactivity; for tissue uptake at 6 h: 6h p.i.; for tissue uptake at 6 h / tissue uptake at 48 h: i.v., n=4-5; for tissue uptake at 6 h / tissue uptake at 48 h / tissue to tissue ratio at 48 h: means ± SD; for tissue uptake at 48 h / tissue to tissue ratio at 48 h: 48h p.i.; for tissue uptake at 1 h: 1h p.i., coinjection of 50 µg AMD3100/animal, n=1; for tissue to tissue ratio at 48 h: n=4-5 animals
In short: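 Female CB-17 SCID mice with Daudi xenografts (n=4-5) received 5-10 MBq (0.08-0.11 nmol) ^68Ga- or ^177Lu-labelled ligand i.v.; blocking by coinjected 50 µg AMD3100. Organs counted by γ-counter at 1, 6 and 48 h p.i.; %ID/g (mean ± SD).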

[1] = adrenals, read-out: Biodistribution adrenals
[2] = blood, read-out: Biodistribution blood
[3] = colon, read-out: Biodistribution colon
[4] = femur, read-out: Biodistribution femur
[5] = heart, read-out: Biodistribution heart
[6] = kidney, read-out: Biodistribution kidney
[7] = liver, read-out: Biodistribution liver
[8] = lung, read-out: Biodistribution lung
[9] = muscle, read-out: Biodistribution muscle
[10] = pancreas, read-out: Biodistribution pancreas
[11] = small intestine, read-out: Biodistribution small intestine
[12] = spleen, read-out: Biodistribution spleen
[13] = stomach, read-out: Biodistribution stomach
[14] = tumor (Daudi xenograft), read-out: Biodistribution tumor (Daudi xenograft)

Structure (SMILES): C[C@@H](NC(=O)[C@@H](CCCNC(=N)N)NC(=O)CN1CCN(CC(=O)O)CCN(CC(=O)O)CCN(CC(=O)O)CC1)C(=O)Nc1ccc(C(=O)NCCC[C@@H]2C(=O)N[C@@H](CCCNC(=N)N)C(=O)N[C@@H](Cc3ccc4ccccc4c3)C(=O)NCC(=O)N[C@H](Cc3ccc(O)cc3)C(=O)N2C)cc1 [[^177Lu]DOTA-r-a-ABA-CPCR4, metal not drawn] (cyclo([2Nal]G[dY][dNMeOrn]([4Abz-dA-dR-DOTA])R))
- tissue uptake at 6 h [1]: 0.51 ± 0.12 %ID/g
- tissue uptake at 48 h [1]: 0.33 ± 0.08 %ID/g
- tissue uptake at 1 h (adrenals, with AMD3100, 50 µg per animal, coinjected (CXCR4 competition), read-out: Biodistribution adrenals, + AMD3100): 1.22 %ID/g
- tissue uptake at 6 h [2]: 0.05 ± 0.01 %ID/g
- tissue uptake at 48 h [2]: 0.01 %ID/g
- tissue uptake at 1 h (blood, with AMD3100, 50 µg per animal, coinjected (CXCR4 competition), read-out: Biodistribution blood, + AMD3100): 1.9 %ID/g
- tissue uptake at 6 h [3]: 0.65 ± 0.3 %ID/g
- tissue uptake at 48 h [3]: 0.44 ± 0.22 %ID/g
- tissue uptake at 1 h (colon, with AMD3100, 50 µg per animal, coinjected (CXCR4 competition), read-out: Biodistribution colon, + AMD3100): 0.74 %ID/g
- tissue uptake at 6 h [4]: 0.3 ± 0.05 %ID/g
- tissue uptake at 48 h [4]: 0.29 ± 0.05 %ID/g
- tissue uptake at 1 h (femur, with AMD3100, 50 µg per animal, coinjected (CXCR4 competition), read-out: Biodistribution femur, + AMD3100): 0.74 %ID/g
- tissue uptake at 1 h (heart, read-out: Biodistribution heart, + AMD3100): 1.07 %ID/g
- tissue uptake at 6 h [5]: 0.13 ± 0.02 %ID/g
- tissue uptake at 48 h [5]: 0.08 ± 0.01 %ID/g
- tissue uptake at 6 h [6]: 7.1 ± 2.06 %ID/g
- tissue uptake at 48 h [6]: 3.05 ± 0.15 %ID/g
- tissue uptake at 1 h (kidney, with AMD3100, 50 µg per animal, coinjected (CXCR4 competition), read-out: Biodistribution kidney, + AMD3100): 10.3 %ID/g
- tissue uptake at 1 h (liver, read-out: Biodistribution liver, + AMD3100): 5.46 %ID/g
- tissue uptake at 6 h [7]: 11.3 ± 2.83 %ID/g
- tissue uptake at 48 h [7]: 8.99 ± 1.62 %ID/g
- tissue uptake at 1 h (lung, read-out: Biodistribution lung, + AMD3100): 3.34 %ID/g
- tissue uptake at 6 h [8]: 0.27 ± 0.06 %ID/g
- tissue uptake at 48 h [8]: 0.19 ± 0.08 %ID/g
- tissue uptake at 6 h [9]: 0.04 ± 0.01 %ID/g
- tissue uptake at 48 h [9]: 0.02 %ID/g
- tissue uptake at 1 h (muscle, with AMD3100, 50 µg per animal, coinjected (CXCR4 competition), read-out: Biodistribution muscle, + AMD3100): 0.38 %ID/g
- tissue uptake at 6 h [10]: 0.08 ± 0.02 %ID/g
- tissue uptake at 48 h [10]: 0.07 ± 0.01 %ID/g
- tissue uptake at 1 h (pancreas, with AMD3100, 50 µg per animal, coinjected (CXCR4 competition), read-out: Biodistribution pancreas, + AMD3100): 0.61 %ID/g
- tissue uptake at 6 h [11]: 0.3 ± 0.06 %ID/g
- tissue uptake at 48 h [11]: 0.16 ± 0.11 %ID/g
- tissue uptake at 1 h (small intestine, with AMD3100, 50 µg per animal, coinjected (CXCR4 competition), read-out: Biodistribution small intestine, + AMD3100): 1.36 %ID/g
- tissue uptake at 6 h [12]: 1.41 ± 0.24 %ID/g
- tissue uptake at 48 h [12]: 1.06 ± 0.33 %ID/g
- tissue uptake at 1 h (spleen, with AMD3100, 50 µg per animal, coinjected (CXCR4 competition), read-out: Biodistribution spleen, + AMD3100): 1.11 %ID/g
- tissue uptake at 6 h [13]: 0.25 ± 0.07 %ID/g
- tissue uptake at 48 h [13]: 0.19 ± 0.13 %ID/g
- tissue uptake at 1 h (stomach, with AMD3100, 50 µg per animal, coinjected (CXCR4 competition), read-out: Biodistribution stomach, + AMD3100): 2.46 %ID/g
- tissue uptake at 6 h [14]: 13.6 ± 3.33 %ID/g
- tissue uptake at 48 h [14]: 8.81 ± 0.99 %ID/g
- tissue uptake at 1 h (tumor (Daudi xenograft), with AMD3100, 50 µg per animal, coinjected (CXCR4 competition), read-out: Biodistribution tumor, + AMD3100): 3.04 %ID/g
- tissue to tissue ratio at 48 h (tumor / blood, read-out: Tumor/organ ratio t/blood): 949 ± 146
- tissue to tissue ratio at 48 h (tumor / colon, read-out: Tumor/organ ratio t/colon): 20 ± 10
- tissue to tissue ratio at 48 h (tumor / heart, read-out: Tumor/organ ratio t/heart): 111 ± 20
- tissue to tissue ratio at 48 h (tumor / kidney, read-out: Tumor/organ ratio t/kidney): 2.9 ± 0.4
- tissue to tissue ratio at 48 h (tumor / liver, read-out: Tumor/organ ratio t/liver): 1 ± 0.2
- tissue to tissue ratio at 48 h (tumor / lung, read-out: Tumor/organ ratio t/lung): 47 ± 22
- tissue to tissue ratio at 48 h (tumor / muscle, read-out: Tumor/organ ratio t/muscle): 413 ± 100
- tissue to tissue ratio at 48 h (tumor / small intestine, read-out: Tumor/organ ratio t/small intestine): 55 ± 36
- tissue to tissue ratio at 48 h (tumor / spleen, read-out: Tumor/organ ratio t/spleen): 8.3 ± 2.8
- tissue to tissue ratio at 48 h (tumor / stomach, read-out: Tumor/organ ratio t/stomach): 46 ± 32
